Laboratory results as given in patent US20080182978A1, “ANTI-NGF ANTIBODIES AND METHODS USING SAME” (RINAT NEUROSCIENCE CORP, priority 2002, published 2008).

B1: E3: humanized, affinity matured anti-NGF antagonist antibody; variable regions SEQ ID NO:1 and 2; human IgG2a (A330P331 to S330S331), kappa (antibody, V domains shown)
VH: QVQLQESGPGLVKPSETLSLTCTVSGFSLIGYDLNWIRQPPGKGLEWIGIIWGDGTTDYNSAVKSRVTISKDTSKNQFSLKLSSVTAADTAVYYCARGGYWYATSYYFDYWGQGTLVTVS
VL: DIQMTQSPSSLSASVGDRVTITCRASQSISNNLNWYQQKPGKAPKLLIYYTSRFHSGVPSRFSGSGSGTDFTFTISSLQPEDIATYYCQQEHTLPYTFGQGTKLEIKRT
modifications: human IgG2a constant (A330S/P331S) and kappa constant missing

Columns and labels:
[1] = CFA arthritis rats, hematological parameters; assay type: in vivo, rat; details: for effect on blood parameters compared to vehicle-treated arthritic group: E3 1 mg/kg or 911 10 mg/kg i.v. D14+D19, indomethacin 3 mg/kg/day p.o. 10 days; for Hematocrit / Hemoglobin / Platelets / Red blood cells / White blood cells: arthritic rats, E3 1 mg/kg or 911 10 mg/kg i.v. D14+D19, indomethacin 3 mg/kg p.o. over 10 days, D24
Protocol: On Day 24 (after paw volume and arthritis index measurements and test vocalization), under general anaesthesia using isoflurane (in a mixture of oxygen and nitrous oxide), the blood samples (about 800-1000 μl) was collected by capillary action with a micropipette from retroorbital sinus.
Blood collection for hematological parameters (groups 1-2-3-4-5: 50 vials): A part of blood sample was collected in tubes containing K3—EDTA (at least 100 μL). The determination of parameters were performed on the day of the collection and the samples were not stored. The hematological parameters including red blood cells, white blood cells, platelets, hemoglobin, hematocrit were measured with a hematology cell counter (D 24). Some hematological parameters were not measured due to the clotted samples (vehicle-freated non arthritic rat: #10; E3-treated arthritic rats: #59, #67; 911-treated arthritic rats: #16).

[2] = CFA arthritis rats, body weight (Example 8); assay type: in vivo, rat; details: for body weight: arthritic rats
Protocol: Five groups of 10 animals (5-weeks old male Lewis rats-LEWIS Lew/Ico, from Charles River Laboratories—Belgium) each were included in this study: Group 1: non arthritic rats/saline (vehicle), i.v. bolus, n=10; Group 2: arthritic rats/saline (vehicle), i.v. bolus, n=10; Group 3: arthritic rats/Indomethacin 3 mg/kg, p.o daily over 10 days, n=10; Group 4: arthritic rats/E3, 1 mg/kg, i.v. bolus, n=10; Group 5: arthritic rats/911, 10 mg/kg, i.v. bolus, n=10. The doses were expressed in terms of free active substance (mg/kg). E3 and 911 were extemporaneously prepared in saline from the stock solution to the desired concentration. E3 1 mg/kg: 3.41 mL of the stock solution (0.88 mg/ml) q.s.p. 15 mL of saline. 911 10 mg/kg: 12 mL of the stock solution (2.5 mg/ml) q.s.p. 15 mL of saline. All diluted solutions (before i.v. injection) were sterilized using a sterile filter unit of 0.20.μm. pH and osmolarity values of diluted solutions were measured before each i.v. injection. Before the first i.v., osmolarity (mosm/L) for saline, E3, and 911 were 278, 269, and 308 respectively; pH for saline, E3, and 911 were 5.93, 6.76, 6.71 respectively. Before the second i.v., osmolarity (mosm/L) for saline, E3, and 911 were 280, 270, and 309 respectively; pH for saline, E3, and 911 were 5.86, 6.72, and 6.59 respectively.
E3 or 911 or saline were administered by i.v. bolus injection on Day 14 and Day 19 after arthritis induction in a coded and random order with a volume of 5 mL/kg. The non arthritic group was given by i.v. bolus injection of saline on Day 14 and Day 19 with a volume of 5 mL/kg. Indomethacin was extemporaneously prepared in 1% methylcellulose. Indomethacin was administered by oral route (p.o.) once daily over 10 days from Day 14 to Day 23 after arthritis induction in a coded and random order with a volume of 10 mL/kg.
The animals were weighed once daily from Day 0 to Day 24 (except during the week-end days before the treatment: D 1, D 2, D 8, D 9, D 10). All measurements were performed between 9:00 and 12:00 am except at D 14 (7:30-9:00 am) and D 24 (7:30-8:00 am).
All results were reported as Mean ±S.E.M. of 10 rats in each group at each time point. Paw volume was expressed in ml calculated from the mean value of the right and left paw volume. Arthritis index was calculated from the sum of the score obtained for each of the 4 paws. The nociceptive response was evaluated by the intensity of the level of vocalization recorded for each animal (mean of 4 values: 2 times/paw) in mV. The percentage inhibition of the nociceptive response was calculated from the mean value of the vehicle-treated arthritic group [(mean value of vehicle-treated arthritic group−mean value of treated arthritic group/mean value of vehicle-treated arthritic group)*100]. Body weight was expressed in grams. Hindpaws (left and right) weight was expressed in grams. Cytokine levels (IL-6, IL-1β, TNF-α and TGF-β1) of each hind paw was expressed in pg/ml. Circulating levels of TGF-β1 was expressed in pg/ml. Radiological index for each parameter (demineralization, erosions, periostal reaction, soft tissue damage, space joint, osteogenesis deformity) and total radiological index (total score) were calculated from the sum of the scores obtained for each parameter. The inter-group significances of the deviations between the values of vehicle-treated group (arthritic rats) and vehicle-treated group (non arthritic rats) were assessed by the Student t test or Mann-Whitney Rank Sum Test when equal variance or normality test failed. The inter-group significances of the deviations between the values of vehicle-treated group (arthritic rats) and E3- and 911- and Indomethacin-treated groups were assessed by the 1-way analysis of variance ANOVA followed by the non-paired Dunnett t test. A probability of P<0.05 was considered as significant. All statistical analysis was performed by the Sigmastat™ software.

[3] = E3 1 mg/kg or 911 10 mg/kg i.v. D14+D19, indomethacin 3 mg/kg/day p.o., D24
[4] = before treatment (dosing starts D14), D3
[5] = before treatment (dosing starts D14), D4
[6] = before treatment (dosing starts D14), D5
[7] = before treatment (dosing starts D14), D6
[8] = before treatment (dosing starts D14), D7
[9] = before treatment (dosing starts D14), D11
[10] = before treatment (dosing starts D14), D12
[11] = before treatment (dosing starts D14), D13
[12] = group later given E3 1 mg/kg or 911 10 mg/kg i.v. D14+D19 or indomethacin 3 mg/kg/day p.o., D0
[13] = D14 (selection day, first dosing)
[14] = E3 1 mg/kg or 911 10 mg/kg i.v. D14+D19, indomethacin 3 mg/kg/day p.o., D15
[15] = E3 1 mg/kg or 911 10 mg/kg i.v. D14+D19, indomethacin 3 mg/kg/day p.o., D16
[16] = E3 1 mg/kg or 911 10 mg/kg i.v. D14+D19, indomethacin 3 mg/kg/day p.o., D17
[17] = E3 1 mg/kg or 911 10 mg/kg i.v. D14+D19, indomethacin 3 mg/kg/day p.o., D18
[18] = E3 1 mg/kg or 911 10 mg/kg i.v. D14+D19, indomethacin 3 mg/kg/day p.o., D19
[19] = E3 1 mg/kg or 911 10 mg/kg i.v. D14+D19, indomethacin 3 mg/kg/day p.o., D20
[20] = E3 1 mg/kg or 911 10 mg/kg i.v. D14+D19, indomethacin 3 mg/kg/day p.o., D21
[21] = E3 1 mg/kg or 911 10 mg/kg i.v. D14+D19, indomethacin 3 mg/kg/day p.o., D22
[22] = E3 1 mg/kg or 911 10 mg/kg i.v. D14+D19, indomethacin 3 mg/kg/day p.o., D23

Row | Molecule | effect on blood parameters compared to vehicle-treated arthritic group [1] | Hematocrit [1] [%] | Hemoglobin [1] [g/dL] | Platelets [1] | Red blood cells [1] | White blood cells [1] | maximum body weight increase compared to vehicle-treated arthritic group [2, 3] | body weight [2, 4] [grams] | body weight [2, 5] [grams] | body weight [2, 6] [grams] | body weight [2, 7] [grams] | body weight [2, 8] [grams] | body weight [2, 9] [grams] | body weight [2, 10] [grams] | body weight [2, 11] [grams] | body weight [2, 12] [grams] | body weight [2, 13] [grams] | body weight [2, 14] [grams] | body weight [2, 15] [grams] | body weight [2, 16] [grams] | also measured
1 | COc1ccc2c(c1)c(CC(=O)O)c(C)n2C(=O)c1ccc(Cl)cc1 [Indomethacin, reference compound] | did not affect the blood parameters | 35.0 ± 1.5 | 11.8 ± 0.6 | 705 ± 111 10^3/mm^3 | 6.93 ± 0.31 10^6/mm^3 | 21.7 ± 2.5 10^3/mm^3 | about 43 g | 217 ± 4 | 225 ± 4 | 235 ± 4 | 239 ± 4 | 246 ± 4 | 242 ± 7 | 235 ± 7 | 227 ± 6 | 202 ± 3 | 224 ± 5 | 230 ± 4 | 230 ± 5 | 231 ± 4 | body weight [2, 17]: 234 ± 4 grams; body weight [2, 18]: 236 ± 4 grams; body weight [2, 19]: 241 ± 4 grams; body weight [2, 20]: 246 ± 4 grams; body weight [2, 21]: 248 ± 5 grams; body weight [2, 22]: 253 ± 5 grams; body weight [2, 3]: 261±5 grams
2 | B1 | did not affect the blood parameters | 38.5 ± 1.0 | 12.9 ± 0.3 | 827 ± 77 10^3/mm^3 | 7.74 ± 0.17 10^6/mm^3 | 19.1 ± 1.2 10^3/mm^3 | about 46 g | 222 ± 3 | 230 ± 3 | 241 ± 3 | 243 ± 3 | 249 ± 3 | 242 ± 6 | 237 ± 6 | 230 ± 5 | 206 ± 4 | 225 ± 5 | 223 ± 5 | 224 ± 5 | 227 ± 4 | body weight [2, 17]: 232 ± 4 grams; body weight [2, 18]: 235 ± 4 grams; body weight [2, 19]: 238 ± 4 grams; body weight [2, 20]: 245 ± 4 grams; body weight [2, 21]: 250 ± 5 grams; body weight [2, 22]: 257 ± 5 grams; body weight [2, 3]: 264±5 grams
